Laboratory results from the Kinase Knowledgebase extract (Sharma et al. 2016).

Each compound was assayed against PIK3CA (human) (UniProt P42336) (assay: Inhibition of PIK3CA Kinase Activity).
Chain of PIK3CA (human) (P42336 whole entry, looked up): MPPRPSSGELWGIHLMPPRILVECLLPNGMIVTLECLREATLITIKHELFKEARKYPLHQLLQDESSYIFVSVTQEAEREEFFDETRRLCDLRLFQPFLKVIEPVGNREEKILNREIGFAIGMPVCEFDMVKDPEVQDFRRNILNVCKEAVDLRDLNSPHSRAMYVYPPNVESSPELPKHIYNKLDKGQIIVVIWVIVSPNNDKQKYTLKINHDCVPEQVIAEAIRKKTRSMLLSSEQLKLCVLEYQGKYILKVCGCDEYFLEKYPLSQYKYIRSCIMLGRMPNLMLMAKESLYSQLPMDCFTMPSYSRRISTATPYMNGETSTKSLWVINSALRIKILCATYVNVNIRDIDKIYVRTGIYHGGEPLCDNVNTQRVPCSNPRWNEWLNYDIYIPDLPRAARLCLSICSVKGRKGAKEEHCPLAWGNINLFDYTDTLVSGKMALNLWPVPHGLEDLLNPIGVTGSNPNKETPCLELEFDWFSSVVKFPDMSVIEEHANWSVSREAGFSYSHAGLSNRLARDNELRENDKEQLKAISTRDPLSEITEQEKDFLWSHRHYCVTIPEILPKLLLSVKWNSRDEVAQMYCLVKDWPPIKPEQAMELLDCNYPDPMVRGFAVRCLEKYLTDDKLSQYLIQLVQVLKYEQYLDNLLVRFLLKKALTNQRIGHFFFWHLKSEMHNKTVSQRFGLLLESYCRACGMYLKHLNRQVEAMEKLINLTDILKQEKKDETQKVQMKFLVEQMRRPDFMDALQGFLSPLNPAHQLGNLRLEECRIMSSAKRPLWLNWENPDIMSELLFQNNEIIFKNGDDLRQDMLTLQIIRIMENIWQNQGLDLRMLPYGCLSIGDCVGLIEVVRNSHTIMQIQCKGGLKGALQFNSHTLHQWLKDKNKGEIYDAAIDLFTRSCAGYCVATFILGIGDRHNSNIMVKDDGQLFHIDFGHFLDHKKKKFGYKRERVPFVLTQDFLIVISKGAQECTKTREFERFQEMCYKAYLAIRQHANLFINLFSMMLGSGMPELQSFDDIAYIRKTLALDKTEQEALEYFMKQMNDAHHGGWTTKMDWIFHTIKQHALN

| IC50 [nM] | Compound |
| --- | --- |
| 50 to 250 | Cc1nc2ncc(-c3ccc4c(c3)CN(c3nc(-c5ccccn5)nc5c3CC(C)(C)CC5)CCO4)cc2[nH]1 |
| ≤ 10 | CC1(C)CCc2ncnc(N3CCOc4ccc(-c5cnc(N)c(S(N)(=O)=O)c5)cc4C3)c2C1 |
| 250 to 1000 | Cc1c(N2CCOc3ccc(-c4cnc5nc(C6CC6)[nH]c5c4)cc3C2)ncnc1N(C)[C@@H](C)c1ccccc1 |
| 10 to 50 | CCC1CCc2ncnc(N3CCOc4ccc(-c5cnc6nc(C)[nH]c6c5)cc4C3)c2C1 (stereo not drawn) |
| 50 to 250 | Cc1nc2ncc(-c3ccc4c(c3)CN(c3ncnc(N5CCN(C)CC5)c3C)CCO4)cc2[nH]1 |
| 50 to 250 | CC1(C)CCc2ncnc(N3CCOc4ccc(-c5cnc(N)c(S(=O)(=O)N6CCC(O)CC6)c5)cc4C3)c2C1 |
| 250 to 1000 | Cn1ccc2cc(-c3ccc4c(c3)CN(c3ccnc5ccccc35)CCO4)cnc21 |
| 10 to 50 | Cc1nc2cc(-c3ccc4c(c3)CN(c3ncnc(C)c3Cc3ccc(F)cc3)CCO4)cnc2[nH]1 |
| 10 to 50 | CCNc1nc2ccc(-c3ccc4c(c3)CN(c3ccnc5cc(OC)c(OC)cc35)CCO4)cc2[nH]1 |
| 250 to 1000 | CCCOc1ccc2ncnc(N3CCOc4ccc(-c5ccc6nc(C)[nH]c6c5)cc4C3)c2c1 |
| 10 to 50 | CCNc1ncnc(N2CCOc3ccc(-c4cnc5nc(C)[nH]c5c4)cc3C2)c1C |
| 50 to 250 | COc1ccc2c(N3CCOc4ccc(-c5cnc(N)nc5)cc4C3)nc(C)nc2c1 |
| 50 to 250 | Cc1nc2ccc(-c3ccc4c(c3)CN(c3ncnc(Nc5ccccc5)c3C)CCO4)cc2[nH]1 |
| 10 to 50 | Cc1nc2ccc(-c3ccc4c(c3)CN(c3ncnc(C)c3Cc3ccc(C(F)(F)F)cc3)CCO4)cc2[nH]1 |
| 250 to 1000 | COc1c(OCc2ccc3ccccc3n2)ccc2c(N3CCOc4ccc(-c5ccc6nc(C)[nH]c6c5)cc4C3)ncnc12 |
| 50 to 250 | Cc1nc2ncc(-c3ccc4c(c3)CN(c3ncnc(N5CCC5)c3C)CCO4)cc2[nH]1 |
| 10 to 50 | COc1ccc2c(N3CCOc4ccc(-c5cnc(N)c([S+]([O-])C[C@@H](C)CO)c5)cc4C3)ncnc2c1 (stereo partly drawn) |
| 10 to 50 | CC1(C)CCc2ncnc(N3CCOc4ccc(-c5cnc(N)c(S(=O)(=O)NC[C@H]6CCNC6)c5)cc4C3)c2C1 |
| ≤ 10 | COC(=O)Nc1nc2ccc(-c3ccc4c(c3)CN(c3ccnc5cc(OC)c(OC)cc35)CCO4)cc2[nH]1 |
| 250 to 1000 | Cc1nc(N2CCOc3ccc(-c4ccc(N)nc4)cc3C2)c2ccccc2n1 |
| 10 to 50 | Cc1nc2ccc(-c3ccc4c(c3)CN(c3ncnc(C)c3Cc3ccc(F)c(F)c3)CCO4)cc2[nH]1 |
| 50 to 250 | Cc1nc2cc(-c3ccc4c(c3)CN(c3nc(CN(C)C)nc(C)c3Cl)CCO4)ccc2[nH]1 |

| IC50 [nM] | Compound |
| --- | --- |
| 50 to 250 | Cc1nc2ccc(-c3ccc4c(c3)CN(c3ncnc5c3CC(C)C5)CCO4)cc2[nH]1 (stereo not drawn) |
| 10 to 50 | CC(O)CNS(=O)(=O)c1cc(-c2ccc3c(c2)CN(c2ncnc4c2CC(C)(C)CC4)CCO3)cnc1N (stereo not drawn) |
| 50 to 250 | CC(C)(CN)CNS(=O)(=O)c1cc(-c2ccc3c(c2)CN(c2ncnc4c2CC(C)(C)CC4)CCO3)cnc1N |
| ≤ 10 | COC(=O)Nc1nc2ncc(-c3ccc4c(c3)CN(c3nc(CN(C)C)nc5c3CC(C)(C)CC5)CCO4)cc2[nH]1 |
| 10 to 50 | CC1(C)CCc2ncnc(N3CCOc4ccc(-c5cnc(N)c(S(=O)(=O)NCC(O)CO)c5)cc4C3)c2C1 (stereo not drawn) |
| 50 to 250 | Cc1ccc(Cc2c(C)ncnc2N2CCOc3ccc(-c4ccc5nc(C)[nH]c5c4)cc3C2)cc1 |
| 250 to 1000 | CCNc1nc2ccc(-c3ccc4c(c3)CN(c3cc(Nc5ccc(OC)cc5)ncn3)CCO4)cc2[nH]1 |
| 250 to 1000 | COc1cncc(-c2ccc3c(c2)CN(c2ncnc4c2CC(C)(C)CC4)CCO3)c1 |
| 250 to 1000 | CC(C)Nc1nc2ccc(-c3ccc4c(c3)CN(c3ccnc5ccccc35)CCO4)cc2[nH]1 |
| 250 to 1000 | Cc1ncnc(N2CCOc3ccc(-c4cncs4)cc3C2)c1Cc1ccc(F)cc1 |
| 10 to 50 | CC1(C)CCc2ncnc(N3CCOc4ccc(-c5cnc(N)c(S(=O)(=O)NC[C@@H]6CCNC6)c5)cc4C3)c2C1 |
| 50 to 250 | CNC(=O)c1ccc(-c2ccc3c(c2)CN(c2nc(CN(C)C)nc4c2CC(C)(C)CC4)CCO3)cc1 |
| 10 to 50 | Cc1nc(N2CCOc3ccc(-c4ccc5nc(C)[nH]c5c4)cc3C2)c2ccccc2n1 |
| 10 to 50 | CC1(C)CCc2ncnc(N3CCOc4ccc(-c5cnc6nc[nH]c6c5)cc4C3)c2C1 |
| ≤ 10 | CCNc1nc2ccc(-c3ccc4c(c3)CN(c3ccnc5ccccc35)CCO4)cc2[nH]1 |
| 10 to 50 | c1ccc2c(N3CCOc4ccc(-c5ccc6nc[nH]c6c5)cc4C3)ncnc2c1 |
| 10 to 50 | c1ccc2c(N3CCOc4ccc(-c5ccc6nc[nH]c6c5)cc4C3)ccnc2c1 |
| 10 to 50 | CC1(C)C=Cc2ncnc(N3CCOc4ccc(-c5ccc(-c6ncc[nH]6)cc5)cc4C3)c2C1 |
| ≤ 10 | CC(CO)NS(=O)(=O)c1cc(-c2ccc3c(c2)CN(c2ncnc4c2CC(C)(C)CC4)CCO3)cnc1N (stereo not drawn) |
| 10 to 50 | CC1(C)CCc2ncnc(N3CCOc4ccc(-c5cnc(N)c(S(=O)(=O)N6C7CCC6CC(N)C7)c5)cc4C3)c2C1 (stereo not drawn) |
| 10 to 50 | Cc1nc2ccc(-c3ccc4c(c3)CN(c3ncnc5c3CC(C)(C)CC5)CCO4)cc2[nH]1 |
| 250 to 1000 | CCc1c(C(C)C)ncnc1N1CCOc2ccc(-c3ccc4nc(C)[nH]c4c3)cc2C1 |

| IC50 [nM] | Compound |
| --- | --- |
| 10 to 50 | CC1(C)CCc2ncnc(N3CCOc4ccc(-c5cnc(N)c(S(=O)(=O)NCCN)c5)cc4C3)c2C1 |
| 10 to 50 | Cc1nc2ccc(-c3ccc4c(c3)CN(c3ncnc(C)c3Cc3ccc(F)cc3)CCO4)cc2[nH]1 |
| 250 to 1000 | COCc1nc2ccc(-c3ccc4c(c3)CN(c3ccnc5ccccc35)CCO4)cc2[nH]1 |
| ≤ 10 | Cc1nc2ccc(-c3ccc4c(c3)CN(c3nc(CNCCF)nc5c3CC(C)(C)CC5)CCO4)cc2[nH]1 |
| 10 to 50 | CC1(C)CCc2ncnc(N3CCOc4ccc(-c5cnc(N)c(S(=O)(=O)CC(O)CO)c5)cc4C3)c2C1 (stereo not drawn) |
| ≤ 10 | COc1ccc2c(N3CCOc4ccc(-c5cnc(N)c(S(=O)(=O)N6CC[C@H](N)C6)c5)cc4C3)ncnc2c1 |
| 10 to 50 | CC1(C)CCc2ncnc(N3CCOc4ccc(-c5cnc(N)c(S(=O)(=O)N[C@@H]6CCNC6)c5)cc4C3)c2C1 |
| ≤ 10 | COc1ccc2c(N3CCOc4ccc(-c5ccc6[nH]cnc6c5)cc4C3)nc(CN(C)C)nc2c1 |
| 10 to 50 | Cc1nc(CN(C)C)nc(N2CCOc3ccc(-c4ccc5[nH]c(C(F)F)nc5c4)cc3C2)c1C(C)C |
| 50 to 250 | Cc1nc2ccc(-c3ccc4c(c3)CN(c3ncnc5c(Br)cccc35)CCO4)cc2[nH]1 |
| 250 to 1000 | CNC(=O)c1ccc(-c2ccc3c(c2)CN(c2ncnc(C)c2Cc2ccc(F)cc2)CCO3)nc1 |
| ≤ 10 | CC[C@H]1CCc2c(ncnc2N2CCOc3ccc(-c4cnc5nc(C)[nH]c5c4)cc3C2)C1 |
| 10 to 50 | CC1(C)CCc2ncnc(N3CCOc4ccc(-c5cnc(N)c(S(=O)(=O)NCC(N)=O)c5)cc4C3)c2C1 |
| 10 to 50 | Cc1nc2ncc(-c3ccc4c(c3)CN(c3nc(CNC5CC5)nc5c3CC(C)(C)CC5)CCO4)cc2[nH]1 |
| 50 to 250 | Cc1nc2ccc(-c3ccc4c(c3)CN(c3ncnc5c(F)cccc35)CCO4)cc2[nH]1 |
| 250 to 1000 | CC1(C)CCc2ncnc(N3CCOc4ccc(-c5cnc(Cl)c(OC(F)F)c5)cc4C3)c2C1 |
| 10 to 50 | Cc1nc2ccc(-c3ccc4c(c3)CN(c3ncnc5ccccc35)CCO4)cc2[nH]1 |
| 50 to 250 | CC1(C)CCc2ncnc(N3CCOc4ccc(-c5cnc(N)c(S(=O)(=O)N6CCNCC6)c5)cc4C3)c2C1 |
| 50 to 250 | Cc1nc(N)sc1-c1ccc2c(c1)CN(c1ncnc3c1CCC(C)(C)C3)CCO2 |
| 50 to 250 | CC1(C)CCc2ncnc(N3CCOc4ccc(-c5ccc6nc[nH]c6c5)cc4C3)c2C1 |
| 10 to 50 | Cc1nc2cc(-c3ccc4c(c3)CN(c3nc(NCCN(C)C)nc(C)c3Cc3ccc(F)cc3)CCO4)ccc2[nH]1 |
| ≤ 10 | Nc1nc2ncc(-c3ccc4c(c3)CN(c3ncnc5ccc(F)cc35)CCO4)cc2[nH]1 |

| IC50 [nM] | Compound |
| --- | --- |
| 250 to 1000 | CC1(C)CCc2ncnc(N3CCOc4ccc(-c5cnc(Cl)c(S(=O)(=O)N6CC[C@H](N)C6)c5)cc4C3)c2C1 |
| 10 to 50 | CC1(C)CCc2ncnc(N3CCOc4ccc(-c5cnc(N)c(S(=O)(=O)NC6CCC6)c5)cc4C3)c2C1 |
| ≤ 10 | CCNc1nc2ncc(-c3ccc4c(c3)CN(c3nc(C)nc5c3CC(C)(C)CC5)CCO4)cc2[nH]1 |
| ≤ 10 | CCNCc1nc2c(c(N3CCOc4ccc(-c5ccc6nc(C)[nH]c6c5)cc4C3)n1)CC(C)(C)CC2 |
| 10 to 50 | CCC1CCc2nc(C)nc(N3CCOc4ccc(-c5cnc6nc(C)[nH]c6c5)cc4C3)c2C1 (stereo not drawn) |
| 250 to 1000 | CSc1nc2c(c(N3CCOc4ccc(-c5ccc6nc(C)[nH]c6c5)cc4C3)n1)CCC2 |
| 50 to 250 | COc1ccc2c(N3CCOc4ccc(-c5cnc6[nH]ccc6c5)cc4C3)nc(C)nc2c1 |
| 50 to 250 | CC1(C)CCc2ncnc(N3CCOc4ccc(-c5cnc(N)c(S(=O)(=O)N6CC7CNCC7C6)c5)cc4C3)c2C1 (stereo not drawn) |
| ≤ 10 | CCNc1nc2ncc(-c3ccc4c(c3)CN(c3nc(C)nc5cc(OC)ccc35)CCO4)cc2[nH]1 |
| ≤ 10 | Cc1nc(CN(C)C)nc(N2CCOc3ccc(-c4ccc5[nH]c(CF)nc5c4)cc3C2)c1Cc1ccc(F)cc1 |
| ≤ 10 | Cc1nc2cc(-c3ccc4c(c3)CN(c3nc(CN(C)C)nc(C)c3C(C)C)CCO4)ccc2[nH]1 |
| 50 to 250 | Cc1cccc(Cc2c(C)ncnc2N2CCOc3ccc(-c4ccc5nc(C)[nH]c5c4)cc3C2)c1 |
| 10 to 50 | CC(=O)OCc1nc2c(c(N3CCOc4ccc(-c5cnc6nc(C)[nH]c6c5)cc4C3)n1)CC(C)(C)CC2 |
| 50 to 250 | COc1ccc(-c2ccc3c(c2)CN(c2nc(CN(C)C)nc4c2CC(C)(C)CC4)CCO3)cn1 |
| 10 to 50 | Cc1nc2ccc(-c3ccc4c(c3)CN(c3ncnc(C)c3Cc3cccc(F)c3)CCO4)cc2[nH]1 |
| ≤ 10 | Cc1c(Nc2ccccc2)ncnc1N1CCOc2ccc(-c3cnc4nc(N)[nH]c4c3)cc2C1 |
| 250 to 1000 | Cc1ncc(-c2ccc3c(c2)CN(c2ncnc4c2CCC(C)(C)C4)CCO3)s1 |
| 250 to 1000 | c1cc(N2CCOc3ccc(-c4ccc5nc[nH]c5c4)cc3C2)ncn1 |
| 10 to 50 | Cc1nc2ccc(-c3ccc4c(c3)CN(c3ncnc(C)c3Cc3cc(F)cc(Cl)c3)CCO4)cc2[nH]1 |
| 50 to 250 | CN1CCC[C@H](CNS(=O)(=O)c2cc(-c3ccc4c(c3)CN(c3ncnc5c3CC(C)(C)CC5)CCO4)cnc2N)C1 |
| ≤ 10 | COc1ccc2c(N3CCOc4ccc(-c5ccc6nc(C)[nH]c6c5)cc4C3)ncnc2c1 |
| 10 to 50 | CC1(C)CCc2ncnc(N3CCOc4ccc(-c5cnc6[nH]ncc6c5)cc4C3)c2C1 |
